# According to patent US20120094964A1, “SULFAMOYL BENZOIC ACID DERIVATIVES AS TRPM8 ANTAGONISTS” (priority 2009, published 2012):
# Molecular target: T1, human TRPM8 (Homo sapiens, UniProt Q7Z2W7)
# T1 construct: expressed in transfected cells
# Test: In Vitro human TRPM8 Functional Assay (intracellular Ca2+, Fluo4, FDSS, menthol activation)
# Format: cell-based
# Settings: HEK293 cells stably expressing human TRPM8; activation with L-(-)-Menthol; 11-point dose-response
# Experimental: In Vitro human TRPM8 Functional Assay
# The functional activity of compounds was determined by measuring changes in intracellular calcium concentration using a Ca^2+-sensitive fluorescent dye, Fluo4 (Molecular Probes). The changes in fluorescent signal were monitored by the cell imaging technology by Hamamatsu Photonics's Functional Drug Screening System (FDSS).
# HEK293 cells stably expressing human TRPM8 were grown in T175 flasks, in a 5% CO2 humidified incubator to about 80% confluence. Media composition consisted of Dulbecco's Modified Eagle Medium (high glucose), 10% fetal calf serum (FCS), 100 units/ml Penicillin, 100 microg/ml Streptomycin and 600 microg/ml Geneticine.
# 1. Plate-out HEK293-TRPM8 cells (40 microL medium containing 30,000 cells per well) into poly-D-lysine coated 384-well plates (BD FALCON) at 24 hours prior to assay.
# 1. […] 2. […] 3. Place the plate at room temperature in dark for 1 hour. 4. […] 5. Add 20 microL of compound solutions into each well and leave the plate for 5 minutes under the dark at room temperature. 6. Measure activity by FDSS as follows: • Set the assay plate on the stacker of FDSS • Start the detection of fluorescence intensity • After 30 sec, add 20 microL of 90 microM L-(−)-Menthol
# IC50 values for compounds of the present invention were determined from 11-point dose-response studies. Curves were generated using the average of duplicate wells for each data point. Finally, the IC50 values are calculated with the best-fit dose curve determined by XLfit (ID Business Solutions Ltd.).
# T1 sequence (Q7Z2W7 whole entry): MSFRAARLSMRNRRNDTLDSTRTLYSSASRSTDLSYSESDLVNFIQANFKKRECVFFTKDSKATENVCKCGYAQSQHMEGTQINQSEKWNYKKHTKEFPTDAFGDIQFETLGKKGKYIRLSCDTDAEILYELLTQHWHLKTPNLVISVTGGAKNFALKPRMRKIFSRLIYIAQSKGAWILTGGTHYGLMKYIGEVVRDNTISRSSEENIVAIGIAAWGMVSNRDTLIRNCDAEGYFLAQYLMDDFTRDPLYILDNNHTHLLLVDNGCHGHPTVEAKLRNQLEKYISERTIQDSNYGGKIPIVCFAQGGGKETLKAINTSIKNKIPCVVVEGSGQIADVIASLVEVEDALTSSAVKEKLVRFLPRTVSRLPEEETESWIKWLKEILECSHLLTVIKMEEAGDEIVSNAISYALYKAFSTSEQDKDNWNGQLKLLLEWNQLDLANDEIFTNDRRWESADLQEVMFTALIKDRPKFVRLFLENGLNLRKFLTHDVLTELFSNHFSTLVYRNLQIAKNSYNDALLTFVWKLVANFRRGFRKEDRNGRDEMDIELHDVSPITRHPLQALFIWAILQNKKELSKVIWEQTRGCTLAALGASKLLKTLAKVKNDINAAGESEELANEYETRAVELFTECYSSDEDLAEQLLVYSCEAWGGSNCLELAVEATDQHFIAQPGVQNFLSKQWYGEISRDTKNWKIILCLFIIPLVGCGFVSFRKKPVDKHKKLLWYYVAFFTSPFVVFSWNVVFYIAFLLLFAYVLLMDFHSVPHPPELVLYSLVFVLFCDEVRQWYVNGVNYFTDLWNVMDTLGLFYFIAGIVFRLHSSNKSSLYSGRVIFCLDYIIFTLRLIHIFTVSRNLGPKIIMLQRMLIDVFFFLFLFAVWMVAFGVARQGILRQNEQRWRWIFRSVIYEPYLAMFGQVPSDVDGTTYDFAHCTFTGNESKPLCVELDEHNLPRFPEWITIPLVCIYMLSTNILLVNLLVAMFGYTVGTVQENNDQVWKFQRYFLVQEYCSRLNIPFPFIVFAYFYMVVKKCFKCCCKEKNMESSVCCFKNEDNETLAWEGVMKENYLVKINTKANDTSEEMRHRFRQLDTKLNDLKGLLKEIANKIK
row,IC50 [nM],Compound
1,1000 to 10000,"COc1cccc(C(C)N(c2cccc(Cl)c2)S(=O)(=O)c2ccc(F)cc2C)c1 (centres unmarked) [Example 139, N-(3-Chlorophenyl)-4-fluoro-N-(1-(3-methoxy-phenyl)ethyl)-2-methyl-benzenesulfonamide]"
2,< 1000,"O=C(O)c1ccc(S(=O)(=O)N(Cc2ccccc2)c2ncc(C(F)(F)F)cc2Br)cc1 [Example 151, 4-(N-Benzyl-N-(3-bromo-5-(trifluoromethyl)pyridin-2-yl)sulfamoyl)benzoic acid]"
3,< 1000,"Cc1cc(S(=O)(=O)N(Cc2ccccc2)c2ncc(C(F)(F)F)cc2Cl)ccc1C(=O)O [Example 143, 4-(N-Benzyl-N-(3-chloro-5-(trifluoromethyl)pyridin-2-yl)sulfamoyl)-2-methylbenzoic acid]"
4,< 1000,"O=C(O)c1ccc(S(=O)(=O)N(Cc2ccc(-c3ccccc3)cc2)c2ncc(C(F)(F)F)cc2Cl)cc1 [Example 158, 4-(N-([1,1′-Biphenyl]-4-ylmethyl)-N-(3-chloro-5-(trifluoromethyl)pyridin-2-yl)sulfamoyl)benzoic acid]"
5,10000 to 30000,"COc1cccc(N(C(C)c2ccccc2C)S(=O)(=O)c2ccc(C)c(Cl)c2)c1 (centres unmarked) [Example 95, 3-Chloro-N-(3-methoxy-phenyl)-4-methyl-N-(1-o-tolylethyl)benzene-sulfonamide]"
6,< 1000,"O=C(O)c1ccc(S(=O)(=O)N(Cc2ccccc2)c2ncc(C(F)(F)F)cc2Cl)c(Cl)c1 [Example 181, 4-(N-Benzyl-N-(3-chloro-5-(trifluoromethyl)pyridin-2-yl)sulfamoyl)-3-chlorobenzoic acid]"
7,1000 to 10000,"O=S(=O)(c1ccccc1)N(Cc1ccccc1)c1ccccn1 [Example 131, N-Benzyl-N-(pyridin-2-yl)benzenesulfonamide]"
8,< 1000,"COc1ccc(N(C(C)c2ccccc2F)S(=O)(=O)c2ccc(F)cc2)cc1 (centres unmarked) [Example 88, 4-Fluoro-N-(1-(2-fluorophenyl)ethyl)-N-(4-methoxyphenyl)benzene-sulfonamide]"
9,< 1000,"O=C(O)c1ccc(S(=O)(=O)N(CCc2ccccc2)c2ncc(C(F)(F)F)cc2Cl)cc1 [Example 148, 4-(N-(3-Chloro-5-(trifluoromethyl)pyridin-2-yl)-N-phenethylsulfamoyl)benzoic acid]"
10,1000 to 10000,"COc1ccccc1N(Cc1ccccc1)S(=O)(=O)c1cc(C(=O)O)ccc1Cl [Example 118, 3-(N-Benzyl-N-(2-methoxyphenyl)sulfamoyl)-4-chlorobenzoic acid]"
11,< 1000,"N#Cc1ccc(S(=O)(=O)N(Cc2ccccc2)c2ncc(C(F)(F)F)cc2Cl)cc1 [Example 173, N-Benzyl-N-(3-chloro-5-(trifluoromethyl)pyridin-2-yl)-4-cyanobenzenesulfonamide]"
12,< 1000,"O=C(O)c1ccc(S(=O)(=O)N(Cc2cc(F)ccc2F)c2ncc(C(F)(F)F)cc2Cl)cc1 [Example 46, 4-(N-(3-Chloro-5-(trifluoromethyl)pyridin-2-yl)-N-(2,5-difluorobenzyl)sulfamoyl)benzoic acid]"
13,< 1000,"CN(C)S(=O)(=O)Nc1ccc(S(=O)(=O)N(Cc2ccccc2)c2ncc(C(F)(F)F)cc2Cl)cc1 [Example 194, N-Benzyl-N-(3-chloro-5-(trifluoromethyl)pyridin-2-yl)-4-((N,N-dimethylsulfamoyl)amino)benzenesulfonamide]"
14,< 1000,O=C(O)c1ccc(S(=O)(=O)N(Cc2ccc(-c3ccncc3)cc2)c2ncc(C(F)(F)F)cc2Cl)cc1 [Example 156]
15,1000 to 10000,"COc1cccc(C(C)N(c2cccc(OC)c2)S(=O)(=O)c2ccc(C)c(Cl)c2)c1 (centres unmarked) [Example 102, 3-Chloro-N-(3-methoxyphenyl)-N-(1-(3-methoxy-phenyl)ethyl)-4-methyl benzenesulfonamide]"
16,< 1000,"O=C(O)c1ccc(S(=O)(=O)N(Cc2ccc(-n3cccn3)cc2)c2ncc(C(F)(F)F)cc2Cl)cc1 [Example 170, 4-(N-(4-(1H-Pyrazol-1-yl)benzyl)-N-(3-chloro-5-(trifluoromethyl)pyridin-2-yl)sulfamoyl)benzoic acid]"
17,10000 to 30000,"O=C(O)c1cccc(S(=O)(=O)N(Cc2ccccc2)c2ccccc2)c1 [Example 116, 3-(N-Benzyl-N-phenylsulfamoyl)benozic acid]"
18,< 1000,"O=C(O)c1ccc(S(=O)(=O)N(CC2CCCC2)c2ncc(C(F)(F)F)cc2Cl)cc1 [Example 192, 4-(N-(3-Chloro-5-(trifluoromethyl)pyridin-2-yl)-N-(cyclopentylmethyl)sulfamoyl)benzoic acid]"
19,< 1000,"CC(C)c1ccc(CN(c2ncc(C(F)(F)F)cc2Cl)S(=O)(=O)c2ccc(C(=O)O)cc2)cc1 [Example 28, 4-(N-(3-Chloro-5-(trifluoromethyl)pyridin-2-yl)-N-(4-isopropylbenzyl)sulfamoyl)benzoic acid]"
20,1000 to 10000,"O=C(O)c1cc(S(=O)(=O)N(Cc2ccccc2)c2ccccc2Cl)ccc1Cl [Example 121, 5-(N-Benzyl-N-(2-chlorophenyl)sulfamoyl)-2-chlorobenzoic acid]"
21,< 1000,"CN(C)C(=O)c1ccc(S(=O)(=O)N(Cc2ccccc2)c2ncc(C(F)(F)F)cc2Cl)cc1 [Example 12, 4-(Benzyl(3-chloro-5-(trifluoromethyl)pyridin-2-yl)sulfamoyl)-N,N-dimethylbenzamide]"
22,1000 to 10000,"O=C(O)c1ccc(S(=O)(=O)N(Cc2ccc(N3CCCC3=O)cc2)c2ncc(Cl)cc2Cl)cc1 [Example 74, 4-(N-(3,5-Dichloropyridin-2-yl)-N-(4-(2-oxopyrrolidin-1-yl)benzyl)sulfamoyl)benzoic acid]"
23,< 1000,"O=C(O)c1ccc(S(=O)(=O)N(Cc2ccc(-c3cccs3)cc2)c2ncc(C(F)(F)F)cc2Cl)cc1 [Example 155, 4-(N-(3-Chloro-5-(trifluoromethyl)pyridin-2-yl)-N-(4-(thiophen-2-yl)benzyl)sulfamoyl)benzoic acid]"
24,1000 to 10000,"COc1ccc(N(C(C)c2ccccc2OC)S(=O)(=O)c2ccccc2F)cc1OC (centres unmarked) [Example 93, N-(3,4-Dimethoxyphenyl)-2-fluoro-N-(1-(2-methoxy-phenyl)ethyl)benzene-sulfonamide]"
25,< 1000,"COc1ccccc1-c1cnc(N(Cc2ccccc2)S(=O)(=O)c2ccc(C(=O)O)cc2)c(Cl)c1 [Example 185, 4-(N-Benzyl-N-(3-chloro-5-(2-methoxyphenyl)pyridin-2-yl)sulfamoyl)benzoic acid]"
26,1000 to 10000,"O=C(CN(c1cccc(C(F)(F)F)c1)S(=O)(=O)c1ccccc1)Nc1ccccc1 [Example 8, N-Phenyl-2-(N-(3-(trifluoromethyl)phenyl)benzenesulfonamido)acetamide]"
27,< 1000,"NC(=O)Nc1ccc(S(=O)(=O)N(Cc2ccccc2)c2ncc(C(F)(F)F)cc2Cl)cc1 [Example 195, N-Benzyl-N-(3-chloro-5-(trifluoromethyl)pyridin-2-yl)-4-ureidobenzenesulfonamide]"
28,< 1000,"Cn1cc(-c2ccc(CN(c3ncc(C(F)(F)F)cc3Cl)S(=O)(=O)c3ccc(C(=O)O)cc3)cc2)cn1 [Example 152, 4-(N-(3-Chloro-5-(trifluoromethyl)pyridin-2-yl)-N-(4-(1-methyl-1H-pyrazol-4-yl)benzyl)sulfamoyl)benzoic acid]"
29,< 1000,"O=C(O)c1ccc(S(=O)(=O)N(CCCc2ccccc2)c2ncc(C(F)(F)F)cc2Cl)cc1 [Example 59, 4-(N-(3-Chloro-5-(trifluoromethyl)pyridin-2-yl)-N-(3-phenylpropyl)sulfamoyl)benzoic acid]"
